Data taken from ChEMBL document CHEMBL1127324, “Solid-state and solution conformations of the potent HIV inhibitor, 4'-azidothymidine” (J Med Chem, 1994).

Test system: Human immunodeficiency virus
Assay: In vitro inhibitory activity against HIV was determined
Format: functional, organism-based
Conditions: Human immunodeficiency virus 1

IC50: 10 nM
SMILES: Cc1cn([C@H]2C[C@H](O)[C@](CO)(N=[N+]=[N-])O2)c(=O)[nH]c1=O
